According to patent US8680269B2, “Pesticidal compositions” (Dow AgroSciences, LLC., priority 2009, dated 2014):

Experiments:
Type in all cases: in vivo
[1] = tested on: corn earworm (CEW; Helicoverpa zea); experiment: Insecticidal test for corn earworm, 128-well diet tray assay; settings: 144 h, 50 μg/cm2 on artificial diet, second instar larvae, six days at 25° C.
Experimental: (§1) Bioassays on corn earworm (CEW; Helicoverpa zea: Lepidoptera) were conducted using a 128-well diet tray assay. Three to five second instar CEW larvae were placed in each well (3 mL) of the diet tray that had been previously filled with 1 mL of artificial diet to which 50 μg/cm^2 of the test compound (dissolved in 50 μL of 90:10 acetone-water mixture) had been applied (to each of eight wells) and then allowed to dry. Trays were covered with a clear self-adhesive cover, and held at 25° C., 14:10 light-dark for six days. Percent mortality was recorded for the larvae in each well; activity in the eight wells was then averaged.

[2] = tested on: beet armyworm (BAW; Spodoptera exigua); experiment: Insecticidal test for beet armyworm, 128-well diet tray assay; settings: 144 h, 50 μg/cm2 on artificial diet, second instar larvae, six days at 25° C.
Experimental: as §1, with “beet armyworm (BAW; Spodoptera exigua:” for “corn earworm (CEW; Helicoverpa zea:”, “BAW” for “CEW”

[3] = tested on: green peach aphid (Myzus persicae); experiment: Insecticidal test for green peach aphid in foliar spray assay; settings: 72 h, 200 ppm foliar spray on cabbage seedlings, graded after three days, Abbott corrected % control, read-out: Mortality GPA 200 ppm
Experimental: Cabbage seedlings grown in 3-inch pots, with 2-3 small (3-5 cm) true leaves, were used as test substrate. The seedlings were infested with 20-50 green peach aphids (wingless adult and nymph) one day prior to chemical application. Four pots with individual seedlings were used for each treatment. Compounds (2 mg) were dissolved in 2 mL of acetone/methanol (1:1) solvent, forming stock solutions of 1000 ppm. The stock solutions were diluted 5× with 0.025% Tween 20 in H2O to obtain the test solution at 200 ppm. A hand-held Devilbiss sprayer was used for spraying a solution to both sides of cabbage leaves until runoff. Reference plants (solvent check) were sprayed with the diluent only. Treated plants were held in a holding room for three days at approximately 25° C. and 40% relative humidity (RH) prior to grading. Evaluation was conducted by counting the number of live aphids per plant under a microscope. Insecticidal activity data, measured by using Abbott's correction formula, are presented in Table 2: Corrected % Control=100*(X−Y)/X • where X=No. of live aphids on solvent check plants • Y=No. of live aphids on treated plants

| Structure (SMILES) | mortality at 50 µg/cm2 [1] | mortality at 50 µg/cm2 [2] | mortality at 200 ppm [3] |
| --- | --- | --- | --- |
| CN(C)c1ccc(NC(=S)N/N=C/c2ccc(-c3ncn(-c4ccc(OC(F)(F)F)cc4)n3)cc2)cc1 [Compound 1] | 50 to 100% | 50 to 100% | < 80% |
| Nc1ccc(NC(=S)N/N=C/c2ccc(-c3ncn(-c4ccc(OC(F)(F)F)cc4)n3)cc2)cc1 [Compound 81] | 50 to 100% | 50 to 100% | < 80% |
| CCc1cccc(CC)c1NC(=S)N/N=C/c1ccc(-c2ncn(-c3ccc(OC(F)(F)F)cc3)n2)cc1 [Compound 76] | 50 to 100% | 50 to 100% | < 80% |
| COc1ccccc1NC(=S)N/N=C/c1ccc(-c2ncn(-c3ccc(OC(F)(F)F)cc3)n2)cc1 [Compound 74] | 50 to 100% | 50 to 100% | < 80% |
| COc1cc(C)c(NC(=S)N/N=C/c2ccc(C3=NN(c4ccc(OC(F)(F)F)cc4)C(C(N)=O)C3)cc2)c(C)c1 (centres unmarked) [Compound 133] | 50 to 100% | 50 to 100% | < 80% |
| CN(C)c1ccc(CNC(=S)N/N=C/c2ccc(-c3ncn(-c4ccc(OC(F)(F)F)cc4)n3)cc2)cc1 [Compound 37] | 50 to 100% | 50 to 100% | < 80% |
| Cc1cccc(C)c1NC(=S)N/N=C/c1ccc(-c2ncn(-c3ccc(OC(F)(F)F)cc3)n2)cc1 [Compound 78] | 50 to 100% | 50 to 100% | < 80% |
| CN(C)C(=S)N/N=C/c1ccc(-c2ncn(-c3ccc(C(F)(F)F)cc3)n2)cc1 [Compound 8] | 50 to 100% | 50 to 100% | < 80% |
| CCCCCNC(=S)N/N=C/c1ccc(-c2ncn(-c3ccc(OC(F)(F)F)cc3)n2)cc1 [Compound 24] | < 50% | 50 to 100% | < 80% |
| COc1ccc(NC(=S)N/N=C/c2ccc(-c3ncn(-c4ccc(OC(F)(F)F)cc4)n3)cc2)c(OC)c1 [Compound 45] | 50 to 100% | 50 to 100% | < 80% |
| FC(F)(F)Oc1ccc(NC(=S)N/N=C/c2ccc(-c3ncn(-c4ccc(OC(F)(F)F)cc4)n3)cc2)cc1 [Compound 26] | 50 to 100% | 50 to 100% | < 80% |
| COC(=O)C1CC(c2ccc(/C=N/NC(=S)Nc3c(C)cc(OC)cc3C)cc2)=NN1c1ccc(OC(F)(F)F)cc1 (centres unmarked) [Compound 132] | 50 to 100% | 50 to 100% | < 80% |
| COc1ccc(NC(=S)N/N=C/c2ccc(-c3ncn(-c4ccc(OC(F)(F)F)cc4)n3)cc2)c(F)c1 [Compound 50] | 50 to 100% | 50 to 100% | < 80% |
| CN(C)C(=S)N/N=C/c1ccc(-c2ncn(-c3ccc(OC(F)(F)F)cc3)n2)cc1 [Compound 11] | 50 to 100% | 50 to 100% | < 80% |
| CCc1cccc(C)c1NC(=S)N/N=C/c1ccc(-c2ncn(-c3ccc(OC(F)(F)F)cc3)n2)cc1 [Compound 72] | 50 to 100% | 50 to 100% | < 80% |
| Fc1ccc(NC(=S)N/N=C/c2ccc(-c3ncn(-c4ccc(OC(F)(F)F)cc4)n3)cc2)cc1 [Compound 10] | 50 to 100% | 50 to 100% | < 80% |
| COc1ccc(NC(=S)N/N=C/c2ccc(-c3ncn(-c4ccc(OC(F)(F)F)cc4)n3)cc2)cc1 [Compound 28] | 50 to 100% | 50 to 100% | < 80% |
| COc1ccc([C@@H](C)NC(=S)N/N=C/c2ccc(-c3ncn(-c4ccc(OC(F)(F)F)cc4)n3)cc2)cc1 [Compound 142] | 50 to 100% | 50 to 100% | – |

| Structure (SMILES) | mortality at 50 µg/cm2 [1] | mortality at 50 µg/cm2 [2] | mortality at 200 ppm [3] |
| --- | --- | --- | --- |
| C=C(C)c1ccccc1NC(=S)N/N=C/c1ccc(-c2ncn(-c3ccc(OC(F)(F)F)cc3)n2)cc1 [Compound 91] | 50 to 100% | 50 to 100% | – |
| COc1ccc(NC(=S)N/N=C/c2ccc(-c3ncn(-c4ccc(OC(F)(F)F)cc4)n3)cc2)c(C(C)C)c1 [Compound 121] | 50 to 100% | 50 to 100% | – |
| CCN(/N=C/c1ccc(-c2ncn(-c3ccc(OC(F)(F)F)cc3)n2)cc1)C(=S)Nc1ccc(OC)cc1C [Compound 86] | 50 to 100% | 50 to 100% | – |
| CC(C)(C)c1ccccc1NC(=S)N/N=C/c1ccc(-c2ncn(-c3ccc(OC(F)(F)F)cc3)n2)cc1 [Compound 83] | < 50% | < 50% | – |
| Cc1cc(Cl)cc(C)c1NC(=S)N/N=C/c1ccc(-c2ncn(-c3ccc(OC(F)(F)F)cc3)n2)cc1 [Compound 114] | 50 to 100% | 50 to 100% | – |
| COc1cc(Cl)c(NC(=S)N/N=C/c2ccc(-c3ncn(-c4ccc(OC(F)(F)F)cc4)n3)cc2)c(Cl)c1 [Compound 115] | 50 to 100% | 50 to 100% | – |
| Cc1cc(F)cc(C)c1NC(=S)N/N=C/c1ccc(-c2ncn(-c3ccc(OC(F)(F)F)cc3)n2)cc1 [Compound 112] | 50 to 100% | 50 to 100% | – |
| FC(F)(F)Oc1ccc(-n2cnc(-c3ccc(/C=N/NC(=S)NC4CCc5ccccc54)cc3)n2)cc1 (centres unmarked) [Compound 145] | 50 to 100% | 50 to 100% | – |
| Cc1ccc(NC(=S)N/N=C/c2ccc(-c3ncn(-c4ccc(OC(F)(F)F)cc4)n3)cc2)c(C(C)C)c1 [Compound 96] | 50 to 100% | 50 to 100% | – |
| COc1cc(C)c(NC(=S)N/N=C/c2ccc(-c3ncn(-c4ccc(OC(F)(F)F)cc4)n3)cc2)c(C)c1 [Compound 116] | 50 to 100% | 50 to 100% | – |
| Cc1ccc(C(C)NC(=S)N/N=C/c2ccc(-c3ncn(-c4ccc(OC(F)(F)F)cc4)n3)cc2)cc1 (centres unmarked) [Compound 144] | 50 to 100% | 50 to 100% | – |
| Cc1cc(C)c(NC(=S)N/N=C/c2ccc(-c3ncn(-c4ccc(OC(F)(F)F)cc4)n3)cc2)c(Cl)c1 [Compound 104] | 50 to 100% | 50 to 100% | – |
| Cc1cc(C)c(NC(=O)N/N=C/c2ccc(-c3ncn(-c4ccc(OC(F)(F)F)cc4)n3)cc2)c(C)c1 [Compound 118] | 50 to 100% | 50 to 100% | – |
| CCc1cccc(CC)c1NC(=S)N/N=C(\C)c1ccc(-c2ncn(-c3ccc(OC(F)(F)F)cc3)n2)cc1 [Compound 110] | 50 to 100% | 50 to 100% | – |
| CC(NC(=S)N/N=C/c1ccc(-c2ncn(-c3ccc(OC(F)(F)F)cc3)n2)cc1)c1ccccc1 (centres unmarked) [Compound 152] | 50 to 100% | 50 to 100% | – |
| Cc1ccnc(C)c1NC(=S)N/N=C/c1ccc(-c2ncn(-c3ccc(OC(F)(F)F)cc3)n2)cc1 [Compound 102] | 50 to 100% | 50 to 100% | – |
| FC(F)(F)Oc1ccc(-n2cnc(-c3ccc(/C=N/NC(=S)Nc4c(Br)cccc4Br)cc3)n2)cc1 [Compound 48] | 50 to 100% | 50 to 100% | – |
| COC(=O)c1ccccc1NC(=S)N/N=C/c1ccc(-c2ncn(-c3ccc(OC(F)(F)F)cc3)n2)cc1 [Compound 84] | < 50% | < 50% | – |
